# Measured values as given in patent US7893074B2, “2, 4-pyrimidinediamines useful in the treatment of neoplastic diseases, inflammatory and immune system disorders” (Novartis AG, priority 2003, dated 2011).
# Where two headings read alike, the source gives them in different places.
# What was measured:
# [1] = test system: Mouse mammary carcinoma 4T1 cells; test: Anchorage-independent tumor cell growth assay; type: cell-based
# Procedure: Cells are cultured for 2 h and inhibitors are added at various concentrations in a final concentration of 0.1% DMSO. After 48 h, cell growth is assayed with the cell counting kit-8 (Wako Pure Chemical), which uses a water soluble tetrazolium salt WST8. Twenty μL of the reagent is added into each well and cells are further cultured for 2 h. The optical density is measured at 450 nm.
# FAK = FAK (Mus musculus, UniProt P34152); test: Phos IC50 (phosphorylation); type: cell-based
# Sequence of FAK (P34152 2-1052): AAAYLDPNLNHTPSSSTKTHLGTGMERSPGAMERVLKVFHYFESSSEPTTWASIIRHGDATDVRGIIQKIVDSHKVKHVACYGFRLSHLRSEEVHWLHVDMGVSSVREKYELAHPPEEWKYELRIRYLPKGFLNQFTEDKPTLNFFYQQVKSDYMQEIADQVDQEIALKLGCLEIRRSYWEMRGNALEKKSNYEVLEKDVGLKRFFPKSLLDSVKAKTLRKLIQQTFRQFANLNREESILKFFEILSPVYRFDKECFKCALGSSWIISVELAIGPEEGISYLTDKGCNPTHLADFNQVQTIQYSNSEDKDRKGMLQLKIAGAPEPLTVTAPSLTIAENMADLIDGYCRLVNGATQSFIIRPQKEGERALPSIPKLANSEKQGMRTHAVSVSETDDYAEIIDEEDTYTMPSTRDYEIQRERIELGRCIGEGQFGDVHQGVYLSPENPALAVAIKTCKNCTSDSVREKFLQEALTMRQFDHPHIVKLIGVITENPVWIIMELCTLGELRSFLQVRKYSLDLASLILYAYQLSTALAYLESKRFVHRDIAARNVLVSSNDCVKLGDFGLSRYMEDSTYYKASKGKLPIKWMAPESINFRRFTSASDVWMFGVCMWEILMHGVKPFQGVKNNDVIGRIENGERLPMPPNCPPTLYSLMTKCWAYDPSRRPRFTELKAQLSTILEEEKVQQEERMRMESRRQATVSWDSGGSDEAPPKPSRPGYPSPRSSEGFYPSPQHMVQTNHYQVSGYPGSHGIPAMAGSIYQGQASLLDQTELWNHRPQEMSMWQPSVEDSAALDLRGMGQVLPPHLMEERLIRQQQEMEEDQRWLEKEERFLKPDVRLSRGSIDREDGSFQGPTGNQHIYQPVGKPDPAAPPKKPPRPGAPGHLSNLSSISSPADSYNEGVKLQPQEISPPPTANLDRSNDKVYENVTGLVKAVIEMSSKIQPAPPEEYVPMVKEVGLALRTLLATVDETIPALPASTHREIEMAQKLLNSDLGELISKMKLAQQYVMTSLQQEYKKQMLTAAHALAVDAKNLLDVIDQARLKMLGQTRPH
# [2] = molecular target: Focal Adhesion Kinase (FAK) (Homo sapiens, UniProt Q05397); test: FAK assay system (Focal Adhesion Kinase inhibition); type: biochemical; details: read-out: FAK IC50
# Sequence of Focal Adhesion Kinase (FAK) (Q05397 384-706): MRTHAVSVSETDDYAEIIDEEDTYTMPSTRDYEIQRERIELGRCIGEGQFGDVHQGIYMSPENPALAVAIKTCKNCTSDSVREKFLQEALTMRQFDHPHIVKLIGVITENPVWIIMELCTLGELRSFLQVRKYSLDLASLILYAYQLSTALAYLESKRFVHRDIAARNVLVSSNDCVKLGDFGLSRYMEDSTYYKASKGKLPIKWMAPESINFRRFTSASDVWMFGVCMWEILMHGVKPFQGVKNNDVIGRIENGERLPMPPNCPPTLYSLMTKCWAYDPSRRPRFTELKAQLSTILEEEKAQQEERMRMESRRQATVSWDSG
"IC50 ([1]; Mus musculus, 4T1)",IC50 (FAK),IC50 [2],IC50 [1],Compound
440 nM,1000 nM,39 nM,,CNC(=O)c1c(C)cccc1Nc1nc(Nc2ccc(OC3CCN(C)CC3)cc2OC)ncc1Cl [Example 10-1]
1060 nM,900 nM,26 nM,,CNC(=O)c1c(C)cccc1Nc1nc(Nc2ccc(N3CCC(N4CCCCC4)CC3)cc2OC)ncc1Cl [Example 10-2]
2400 nM,900 nM,23 nM,,CNC(=O)c1c(C)cccc1Nc1nc(Nc2ccc(N3CCOCC3)cc2OC)ncc1Cl [Example 10-3]
850 nM,700 nM,9 nM,,CNC(=O)c1cc(F)ccc1Nc1nc(Nc2ccc(N3CCOCC3)cc2OC)ncc1Cl [Example 11-1]
690 nM,800 nM,4.1 nM,,CNC(=O)c1cc(F)ccc1Nc1nc(Nc2ccc(N3CCC(N4CCCCC4)CC3)cc2OC)ncc1Cl [Example 11-2]
100 nM,410 nM,26 nM,,CNC(=O)c1cc(F)ccc1Nc1nc(Nc2cccc3c2ccn3C)ncc1Cl [Example 11-3]
3200 nM,> 10000 nM,4.3 nM,,CNC(=O)c1cc(F)ccc1Nc1nc(Nc2ccc(N3CCN(C(C)=O)CC3)cc2OC)ncc1Cl [Example 11-4]
1000 nM,> 10000 nM,37 nM,,CCNC(=O)c1cc(F)ccc1Nc1nc(Nc2ccc(N3CCOCC3)cc2OC)ncc1Cl [Example 14-5]
1400 nM,200 nM,7.5 nM,,COc1cc(N2CCOCC2)ccc1Nc1ncc(Cl)c(Nc2ccccc2S(=O)(=O)N2CCOCC2)n1 [Example 14-7]
660 nM,> 10000 nM,21 nM,,CNC(=O)c1cc(N2CCCC2)ccc1Nc1nc(Nc2ccc(OC3CCN(C)CC3)cc2OC)ncc1Cl [Example 15-2]
4000 nM,> 10000 nM,44 nM,,CNC(=O)c1cc(N2CCOCC2)ccc1Nc1nc(Nc2ccc(F)cc2OC)ncc1Cl [Example 16-1]
600 nM,> 10000 nM,6 nM,,CNC(=O)c1cc(N2CCN(C)CC2)ccc1Nc1nc(Nc2ccc(F)cc2OC)ncc1Cl [Example 16-2]
> 10000 nM,3000 nM,21 nM,,CNC(=O)c1cc(OC)ccc1Nc1nc(Nc2ccc(F)cc2OC)ncc1Cl [Example 16-3]
920 nM,> 10000 nM,9.5 nM,,CNC(=O)c1cc(N2CCC(N3CCCCC3)CC2)ccc1Nc1nc(Nc2ccc(F)cc2OC)ncc1Cl [Example 16-4]
7000 nM,3000 nM,11 nM,,COc1cc(F)ccc1Nc1ncc(Cl)c(Nc2ccccc2S(=O)(=O)N2CCOCC2)n1 [Example 16B]
> 10000 nM,900 nM,28 nM,,COc1cc(F)ccc1Nc1ncc(Cl)c(Nc2ccccc2S(=O)(=O)NCC(F)(F)F)n1 [Example 16C]
1290 nM,> 10000 nM,19 nM,,CNC(=O)c1cc(N2CCOCC2)ccc1Nc1nc(Nc2ccc(N3CCN(C(C)=O)CC3)cc2OC)ncc1Cl [Example 18-1]
700 nM,1000 nM,5 nM,,COc1cc(F)ccc1Nc1ncc(Cl)c(Nc2ccccc2S(=O)(=O)NC(C)C)n1 [Example 19-6]
110 nM,300 nM,2.1 nM,,COc1cc(OC2CCN(C)CC2)ccc1Nc1ncc(Cl)c(Nc2ccccc2S(=O)(=O)NC(C)C)n1 [Example 19-7]
2000 nM,> 10000 nM,38 nM,,COc1c(Nc2ncc(Cl)c(Nc3ccccc3S(=O)(=O)NC(C)C)n2)ccc(N2CCOCC2)c1F [Example 19-11]

"IC50 ([1]; Mus musculus, 4T1)",IC50 (FAK),IC50 [2],IC50 [1],Compound
1100 nM,300 nM,2.5 nM,,COc1cc(N2CCC(NC(C)=O)C2)ccc1Nc1ncc(Cl)c(Nc2ccccc2S(=O)(=O)NC(C)C)n1 (stereo not drawn) [Example 19-13]
360 nM,500 nM,3.1 nM,,COc1cc(N2CCC(N3CCCC3)CC2)ccc1Nc1ncc(Cl)c(Nc2ccccc2S(=O)(=O)NC(C)C)n1 [Example 19-15]
1100 nM,700 nM,2.3 nM,,COc1cc(N2CCC[C@H]2CN2CCCC2)ccc1Nc1ncc(Cl)c(Nc2ccccc2S(=O)(=O)NC(C)C)n1 [Example 19-16]
170 nM,> 10000 nM,1 nM,,COc1cc(OCC2CCCCN2C)ccc1Nc1ncc(Cl)c(Nc2ccccc2S(=O)(=O)NC(C)C)n1 (stereo not drawn) [Example 19-17]
870 nM,130 nM,7 nM,,CCN(CC)C(=O)C1CCCN(c2ccc(Nc3ncc(Cl)c(Nc4ccccc4S(=O)(=O)NC(C)C)n3)c(OC)c2)C1 (stereo not drawn) [Example 19-18]
1710 nM,> 10000 nM,84 nM,,COc1c(Nc2ncc(Cl)c(Nc3ccccc3S(=O)(=O)NC(C)C)n2)ccc(OC2CCN(C)CC2)c1F [Example 19-21]
510 nM,120 nM,3.4 nM,,COc1cc(NCC(C)(C)CO)ccc1Nc1ncc(Cl)c(Nc2ccccc2S(=O)(=O)NC(C)C)n1 [Example 19-22]
710 nM,700 nM,6.4 nM,,COc1cc(NC(C)(C)CO)ccc1Nc1ncc(Cl)c(Nc2ccccc2S(=O)(=O)NC(C)C)n1 [Example 19-23]
300 nM,100 nM,6.1 nM,,CC(C)NS(=O)(=O)c1ccccc1Nc1nc(Nc2ccc(OCCN3CCOCC3)cc2F)ncc1Cl [Example 19-26]
400 nM,300 nM,1.5 nM,,COc1cc(N2CCC(N3CCCCC3)CC2)ccc1Nc1ncc(Cl)c(Nc2ccccc2S(=O)(=O)NC(C)C)n1 [Example 19-27]
100 nM,60 nM,< 1 nM,,COc1cc(OCCN2CCN(C)CC2)ccc1Nc1ncc(Cl)c(Nc2ccccc2S(=O)(=O)NC(C)C)n1 [Example 19-30]
380 nM,400 nM,1.8 nM,,COc1cc(N2CCN3CCOC[C@H]3C2)ccc1Nc1ncc(Cl)c(Nc2ccccc2S(=O)(=O)NC(C)C)n1 [Example 19-31]
310 nM,200 nM,1.4 nM,,COc1cc(NC2CCN(C)CC2)ccc1Nc1ncc(Cl)c(Nc2ccccc2S(=O)(=O)NC(C)C)n1 [Example 19-32]
1900 nM,580 nM,23 nM,,CNS(=O)(=O)c1ccccc1Nc1nc(Nc2ccccc2OC(F)F)ncc1Cl [Example 20-4]
1460 nM,870 nM,6.8 nM,,CNS(=O)(=O)c1ccccc1Nc1nc(Nc2ccc(N3CCC(NC(C)=O)C3)cc2OC)ncc1Cl (stereo not drawn) [Example 20-5]
10 nM,300 nM,2 nM,,CNS(=O)(=O)c1ccccc1Nc1nc(Nc2cccc3c2ccn3CCCN2CCN(C)CC2)ncc1Cl [Example 20-9]
20 nM,100 nM,2 nM,,CNS(=O)(=O)c1ccccc1Nc1nc(Nc2cccc3c2ccn3CCCN2CCOCC2)ncc1Cl [Example 20-10]
400 nM,2000 nM,26 nM,,CNS(=O)(=O)c1ccccc1Nc1nc(Nc2cc(N3CCOCC3)ccc2OC)ncc1Cl [Example 20-11]
,400 nM,14 nM,970 nM,CNS(=O)(=O)c1ccccc1Nc1nc(Nc2ccc(N3CCCC(C(N)=O)C3)cc2OC)ncc1Cl (stereo not drawn) [Example 20-15]
